Assay results taken from patent US10975060B2, “High relaxivity gadolinium chelate compounds for use in magnetic resonance imaging” (BAYER PHARMA AKTIENGESELLSCHAFT, priority 2016, dated 2021).
Where two headings read alike, the source gives them in different places.

Key:
[1] = Relaxivity measurements at 1.4 T (MiniSpec mq60, 60 MHz, 37 °C) in water and human plasma; format: physicochemical; details: 1.41 T, normalized to Gd
Protocol: Relaxivity Measurements at 1.4 T
Relaxivity measurements at 1.41 T were performed using a MiniSpec mq60 spectrometer (Bruker Analytik, Karlsruhe, Germany) operating at a resonance frequency of 60 MHz and a temperature of 37° C. The T1 relaxation times were determined using the standard inversion recovery (IR) method with a fixed relaxation delay of at least 5×T1. The variable inversion time (TI) was calculated automatically by the standard software of the MiniSpec mq60 (8 steps). The T2 measurements were done by using a Carr-Purcell-Meiboom-Gill (CPMG) pulse sequence, applying a relaxation delay of at least 5×T1.
Each relaxivity measurement was performed using three different Gd concentrations (3 concentrations between 0.05 and 2 mM). The T1 and T2 relaxation times of the example compounds 1 to 10 were measured in different media for example in water and human plasma. Human plasma preparation: For each experiment fresh blood was taken from a volunteer using 10 mL citrate-tubes (Sarstedt S-Monovette 02.1067.001, 10 mL, Citrate). The 10 mL citrate-tubes were carefully inverted 10 times to mix blood and anticoagulant and centrifuged for 15 minutes at 1811 g at room temperature (Eppendorf, Centrifuge 5810R).
The relaxivities ri (where i=1, 2) were calculated on the basis of the measured relaxation rates Ri in water and plasma: Ri=Ri(0)+ri[CGd], where Ri(0) represent the relaxation rate of the respective solvent and CGd the concentration of the compound normalized to the Gadolinium. The Gadolinium concentrations of the investigated solutions were verified by Inductively Coupled Plasma Mass Spectrometry (ICP-MS Agilent 7500a, Waldbronn, Germany).

[2] = Relaxivity measurements at 3.0 T (whole body MRI scanner, 37 °C) in water and human plasma; format: physicochemical; details: normalized to Gd, average ± standard deviation
Protocol: Relaxivity Measurements at 3.0 T
Relaxivity measurements at 3.0 T were performed with a whole body 3.0 T MRI Scanner (Philips Intera, Philips Healthcare, Hamburg, Germany) using a knee-coil (SENSE-Knee-8, Philips Healthcare, Hamburg, Germany). The sample tubes (CryoTubetm Vials, Thermo Scientific 1.8 mL, Roskilde, Denmark) were positioned in 3 rows of 4 and 5 tubes in a plastic holder in a box filled with water. The temperature was adjusted to 37° C. For the MRI sequence the shortest possible echo-time (TE) with 7.46 milliseconds was used. The inversion times were chosen to optimize the sequence to measure T1 values corresponding to the estimated T1 range of all relaxation times of contrast media containing solutions. The following inversion times (TIs) were applied: 50, 100, 150, 200, 300, 500, 700, 1000, 1400, 2100, 3200, and 4500 milliseconds. The sequence was run with a constant relaxation delay of 3.4 seconds after the registration of the last echo (variable TR in the range from 3450 to 7900 milliseconds). For details of the fit procedure, see Rohrer et. al. (Invest. Radiol. 2005; 40, 11: 715-724). The experimental matrix of the phantom measurement was 320×320.
The relaxivities were evaluated using three different concentrations of each compound (3 concentrations between 0.05 and 2 mM).
The T1 relaxation times of Example compounds were measured in water and human plasma. Human plasma preparation: For each experiment fresh blood was taken from a volunteer using 10 mL citrate-tubes (Sarstedt S-Monovette 02.1067.001, 10 mL, Citrate). The 10 mL citrate-tubes were carefully inverted 10 times to mix blood and anticoagulant and centrifuged for 15 minutes at 1811 g at room temperature (Eppendorf, Centrifuge 5810R).
The relaxivities ri (where i=1, 2) were calculated on the basis of the measured relaxation rates Ri in water and plasma: Ri=Ri(0)+ri[CGd], where Ri(0) represent the relaxation rate of the respective solvent and CGd the concentration of the compound normalized to the Gadolinium (Table 2).

[3] = Water solubility (exploratory, 10 mM Tris-HCl, 20 °C); format: physicochemical; details: water (10 mM Tris-HCl buffer), pH 7.4
Protocol: The exploratory water solubilities of the compounds were determined at room temperature (20° C.) in 0.5 mL buffer solution (10 mM Tris-HCl) in the microcentrifuge tubes (Eppendorf, 2.0 mL safe-lock caps). The solid compounds were added stepwise to the buffer solution. The suspension was mixed using a shaker (Heidolph Reax 2000) and treated 5 min in an ultrasound bath (Bandelin, Sonorex Super RK255H).

[4] = Dynamic CT diffusion phantom study (dialysis cassette in fetal bovine serum); format: physicochemical; details: dialysis cassette 20,000 MWCO, 20 mmol Gd/L, CT signal over 30 h
Protocol: The described dynamic CT diffusion study compares the ability of Examples 1-10 and Reference compounds 1 and 4 to pass a semipermeable membrane (20 kDa). A 128-row clinical CT device (SOMATOM Definition, 128; Siemens Healthcare, Forchheim, Germany) was used to monitor the diffusion through a semipermeable membrane at 100 kV and 104 mA. Single measurements were performed at 0 min, 1 min, 2 min, 3 min, 5 min, 10 min, 15 min, 20 min, 30 min, 45 min, 60 min, 2 h, 3 h, 5 h, 7 h, 22 h, 24 h, 30 h after placing the dialysis cassette (Slide-A-Lyser, 20,000 MWCO, 0.1-0.5 mL Capacity, Thermo Scientific, Roskilde, Denmark) filled with contrast agent in fetal bovine serum solution (FBS, Sigma, F7524). The images were reconstructed with a slice thickness of 2.4 mm and a B30 convolution kernel. The used concentration in the dialysis cassettes of the investigated Examples 1-10 and Reference compounds 1 and 4 was 20 mmol Gd/L.
The imaging results for all investigated Examples and the Reference compounds 1 and 4 for the time points 0 min and 30 h after placing the cassettes in the FBS solution are depicted in FIG. 1. For image analysis, regions of interest were manually drawn on 1 centrally located slice for each time point (a representative measurement region is indicated in FIG. 1: Image RC1).

[5] = 37 °C, cited from earlier work
[6] = 1.5 T, bovine plasma instead of human plasma, from Rohrer et al.
[7] = 3.0 T, plasma, reference compounds marked ^ (Rohrer et al., bovine plasma per Table 1 footnote)
[8] = 3.0 T, reference compounds marked ^ (Rohrer et al. per Table 1 footnote)

Row | Molecule | r1 human plasma [1] | r1 water [1] | r1 human plasma ([2]; human plasma) | r1 water ([2]; water) | Solubility [3] | Diffusion half-live (20 kDa) [4] | r1 human plasma [5, 6] | r1 water ([5]; 1.5 T, from Rohrer et al.) | r1 human plasma [5, 7] | r1 water [5, 8]
1 | CCN(CC(=O)NCC(CNC(=O)CN(CC)C(=O)CN1CCN(CC(=O)[O-])CCN(CC(=O)[O-])CCN(CC(=O)[O-])CC1)(CNC(=O)CN(CC)C(=O)CN1CCN(CC(=O)[O-])CCN(CC(=O)[O-])CCN(CC(=O)[O-])CC1)CNC(=O)CN(CC)C(=O)CN1CCN(CC(=O)[O-])CCN(CC(=O)[O-])CCN(CC(=O)[O-])CC1)C(=O)CN1CCN(CC(=O)[O-])CCN(CC(=O)[O-])CCN(CC(=O)[O-])CC1.[Gd+3].[Gd+3].[Gd+3].[Gd+3] [Example 2, Tetragadolinium [4,10-bis(carboxylatomethyl)-7-{3,13-diethyl-8,8-bis({[(ethyl{[4,7,10-tris(carboxylatomethyl)-1,4,7,10-tetraazacyclododecan-1-yl]acetyl}amino)acetyl]-amino}methyl)-2,5,11,14-tetraoxo-15-[4,7,10-tris(carboxylatomethyl)-1,4,7,10-tetraaza-cyclododecan-1-yl]-3,6,10,13-tetraazapentadec-1-yl}-1,4,7,10-tetraazacyclododecan-1-yl]acetate] | 11.6 L/mmol/s | 10.4 L/mmol/s | 11.3 ± 0.1 L/mmol/s | 9.4 ± 0.1 L/mmol/s | >1000 mg/100 mL | 13.3 h | – | – | – | –
2 | O=C([O-])CN1CCN(CC(=O)[O-])CCN(CC(=O)N(CC(=O)NCC(CNC(=O)CN(C(=O)CN2CCN(CC(=O)[O-])CCN(CC(=O)[O-])CCN(CC(=O)[O-])CC2)c2ccccc2)(CNC(=O)CN(C(=O)CN2CCN(CC(=O)[O-])CCN(CC(=O)[O-])CCN(CC(=O)[O-])CC2)c2ccccc2)CNC(=O)CN(C(=O)CN2CCN(CC(=O)[O-])CCN(CC(=O)[O-])CCN(CC(=O)[O-])CC2)c2ccccc2)c2ccccc2)CCN(CC(=O)[O-])CC1.[Gd+3].[Gd+3].[Gd+3].[Gd+3] [Example 9, Tetragadolinium [4,10-bis(carboxylatomethyl)-7-{2,5,11,14-tetraoxo-3,13-diphenyl-8,8-bis({[(phenyl{[4,7,10-tris(carboxylatomethyl)-1,4,7,10-tetraazacyclododecan-1-yl]-acetyl}amino)acetyl]amino}methyl)-15-[4,7,10-tris(carboxylatomethyl)-1,4,7,10-tetra-azacyclododecan-1-yl]-3,6,10,13-tetraazapentadec-1-yl}-1,4,7,10-tetraazacyclododecan-1-yl]acetate] | 12.0 L/mmol/s | 11.0 L/mmol/s | – | – | >1000 mg/100 mL | 15.1 h | – | – | – | –
3 | O=C([O-])CN1CCN(CC(=O)[O-])CCN(CC(=O)N(CC(=O)NCC(CNC(=O)CN(Cc2ccccc2)C(=O)CN2CCN(CC(=O)[O-])CCN(CC(=O)[O-])CCN(CC(=O)[O-])CC2)(CNC(=O)CN(Cc2ccccc2)C(=O)CN2CCN(CC(=O)[O-])CCN(CC(=O)[O-])CCN(CC(=O)[O-])CC2)CNC(=O)CN(Cc2ccccc2)C(=O)CN2CCN(CC(=O)[O-])CCN(CC(=O)[O-])CCN(CC(=O)[O-])CC2)Cc2ccccc2)CCN(CC(=O)[O-])CC1.[Gd+3].[Gd+3].[Gd+3].[Gd+3] [Example 10, Tetragadolinium [4,10-bis(carboxylatomethyl)-7-{3,13-dibenzyl-8,8-bis({[(benzyl{[4,7,10-tris(carboxylatomethyl)-1,4,7,10-tetraazacyclododecan-1-yl]acetyl}amino)-acetyl]amino}methyl)-2,5,11,14-tetraoxo-15-[4,7,10-tris(carboxylatomethyl)-1,4,7,10-tetraazacyclododecan-1-yl]-3,6,10,13-tetraazapentadec-1-yl}-1,4,7,10-tetraazacyclo-dodecan-1-yl]acetate] | 13.3 L/mmol/s | 11.5 L/mmol/s | – | – | >1000 mg/100 mL | 15.0 h | – | – | – | –
4 | CNC[C@H](O)[C@@H](O)[C@H](O)[C@H](O)CO.CNC[C@H](O)[C@@H](O)[C@H](O)[C@H](O)CO.O=C([O-])CN(CCN(CC(=O)[O-])CC(=O)O)CCN(CC(=O)[O-])CC(=O)O.[Gd+3] [RC2, gadopentetate dimeglumine] | – | – | – | – | – | – | 4.1 L/mmol/s | 3.3 L/mmol/s | 3.7 ± 0.2 L/mmol/s | 3.1 ± 0.3 L/mmol/s
5 | CCOc1ccc(CC(CN(CCN(CC(=O)[O-])CC(=O)[O-])CC(=O)[O-])N(CC(=O)[O-])CC(=O)[O-])cc1.[Gd+3].[Na+].[Na+] (stereo not drawn) [RC3, gadoxetate disodium] | – | – | – | – | – | – | 6.9 L/mmol/s | 4.7 L/mmol/s | 6.2 ± 0.3 L/mmol/s | 4.3 ± 0.3 L/mmol/s
6 | Gadomer-17 [RC4] | – | – | – | – | – | No diffusion | 16 L/mmol/s | 17.3 L/mmol/s | 13 ± 1 L/mmol/s | 13.0 ± 0.7 L/mmol/s
